{"source": "patent US20220151921A1", "about": "“MONOCYTE-SELECTIVE DRUG DELIVERY SYSTEM USING SINGLE-WALLED CARBON NANOTUBES TO INDUCE EFFEROCYTOSIS” (The Board of Trustees of the Leland Stanford Junior …, priority 2019, published 2022)", "key": {"SHP-1": {"target": "SHP-1 (Homo sapiens, UniProt P29350)", "sequence (P29350 whole entry)": "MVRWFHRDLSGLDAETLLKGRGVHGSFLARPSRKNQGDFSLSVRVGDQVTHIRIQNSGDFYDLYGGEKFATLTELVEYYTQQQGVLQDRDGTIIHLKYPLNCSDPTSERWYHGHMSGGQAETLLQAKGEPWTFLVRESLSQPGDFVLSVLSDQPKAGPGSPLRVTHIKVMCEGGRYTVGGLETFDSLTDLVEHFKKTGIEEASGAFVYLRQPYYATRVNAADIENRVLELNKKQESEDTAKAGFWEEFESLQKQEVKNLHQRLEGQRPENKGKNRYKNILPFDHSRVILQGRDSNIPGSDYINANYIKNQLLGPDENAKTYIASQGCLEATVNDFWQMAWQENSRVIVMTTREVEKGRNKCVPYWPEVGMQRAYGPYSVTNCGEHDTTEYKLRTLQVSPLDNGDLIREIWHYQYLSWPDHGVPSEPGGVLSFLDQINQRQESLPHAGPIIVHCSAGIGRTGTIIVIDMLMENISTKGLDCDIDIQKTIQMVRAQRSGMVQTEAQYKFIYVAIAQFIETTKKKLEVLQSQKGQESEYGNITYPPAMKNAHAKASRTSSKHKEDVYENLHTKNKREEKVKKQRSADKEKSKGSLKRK", "details": "cited from earlier work"}, "RAW 264.7 cells": {"test_system": "RAW 264.7 cells", "assay": "Cell proliferation assay (modified MTT)", "assay_type": "cell-based, murine", "method": "Cell Proliferation Assay. A modified MTT (3-[4,5-dimethyl-thiazol-2-yl]-2,5-diphenyltetrazolium bromide) assay was performed to analyze macrophage proliferation. RAW 264.7 cells were plated at 25,000 cells/well in a 96-well plate grown overnight at 37°C., and serum-starved for the next 24 hrs. Cells were stimulated with 10% FBS for 24 hrs with SWNTs (4 nM), SWNT-TPI (TPI: 25 nM and 50 nM), or TPI (25 nM), and then incubated with 10 μL of MTT AB solution (Millipore, Billerica) for 2 hr. 100 μL of acidic isopropanol (0.04N HCl) was added to each well and the absorbance was measured at 570 nm (reference wavelength 650 nm) on an ELISA plate reader a SpectraMax 190 Microplate Reader (Molecular Devices). Statistical analysis Statistical differences were determined by one-way ANOVA, and results were expressed as means±SE. p-value<0.05 and p-value<0.01 were considered to indicate statistical significance. Statistical analyses were performed using GraphPad Prism 7 (GraphPad Inc.)."}, "TPI release assay": {"assay": "TPI release assay", "assay_type": "physicochemical", "details": "PBS pH 5.5 and 6.5, carbonate buffer pH 9, through day 7", "method": "TPI release Assay. We conducted assays to evaluate TPI release from SWNTs in carbonate buffer (pH 9) and PBS buffer (pH 6.5 and 5.5). SWNT-TPI (200 μL, 16.5 TPI molecules/SWNT on average) was added to MINI Dialysis Devices (MWCO: 20K) and the volume of release medium was 3 mL. At fixed timepoints from 1 day to 7 days, 2 μL of the outlet medium was removed to test the rate of TPI release. The cumulative drug release (CDR) percentage was calculated by the following equation: CDR (%)=Wreleased/Wloaded×100% Here, CDR represents the cumulative drug release percentage, Wreleased represents the mass of released TPI in the release media, Wloaded represents the total mass of TPI. TPI release in serum (20% Fetal Bovine Serum (FBS) in Phosphate-buffered saline (PBS)): the timepoints, sample volume, and calculation methods were identical to the above."}}}
{"smiles": "O=S(=O)(O)c1ccc2cc(N=Nc3cc(S(=O)(=O)O)c4cccnc4c3O)ccc2c1", "note": "[NSC87877]", "values": [{"measurement": "IC50", "setting": "SHP-1", "value": 355, "unit": "nM"}]}
{"smiles": "O=C1C=CC(=O)C(c2cc(Cl)ccc2Cl)=C1", "note": "[TPI, 2-(2,5-dichlorophenyl)-2,5-cyclohexadiene-1,4-dione]", "values": [{"measurement": "RAW cell proliferation", "setting": "RAW 264.7 cells", "value": "no significant effect"}, {"measurement": "IC50", "setting": "SHP-1", "value": 40, "unit": "nM"}, {"measurement": "selectivity for SHP-1 over SHP-2", "setting": "SHP-1", "value": "selective toward SHP-1"}, {"measurement": "effectiveness as SHP-1 inhibitor relative to sodium stibogluconate", "setting": "SHP-1; versus sodium stibogluconate", "value": "over two orders of magnitude"}, {"measurement": "TPI release from SWNTs in saline buffers", "setting": "TPI release assay", "value": "accelerated by progressively more acidic conditions"}]}
